The values below come from PubChem BioAssay (NCI).

Where “and” joins values, the source holds several entries; their conditions need not be identical. Equal entries are not always repeated.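 The compound was tested at five concentrations on cells cultured in 96-well plates, with a 48-hour exposure period. GI50 = concentration required for 50% inhibition of growth. TGI is the concentration that stops growth completely.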 Some results are limits rather than exact numbers.

Among the test systems are OVCAR-5 ovarian; HT29 colon; 786-0 renal; SK-MEL-2 melanoma; ACHN renal; LOX IMVI melanoma; UACC-257 melanoma; EKVX NSCLC.
Experiment in all cases: NCI tumour cell line growth inhibition, 48 h

In the case of `COc1ccc(C(CC(=O)c2ccc3c(c2)OCO3)c2c(O)c3ccccc3oc2=O)cc1OC` (stereo not drawn), the TGI in the assay with OVCAR-5 ovarian, in the assay with HT29 colon, in the assay with 786-0 renal, in the assay with SK-MEL-2 melanoma, with ACHN renal and in the assay with LOX IMVI melanoma was greater than 100 µM each time. For the same compound, the TGI in the assay on UACC-257 melanoma and with EKVX NSCLC was greater than 100 µM throughout.

For `C=CC(=O)N1CN(C(=O)C=C)CN(C(=O)C=C)C1`, the GI50 with OVCAR-5 ovarian was 10.6 µM; in the assay with HT29 colon it was 3.26 µM; in the assay with 786-0 renal, 7.15 µM; with SK-MEL-2 melanoma, 5.46 µM; with ACHN renal, 1.89 µM; in the assay on LOX IMVI melanoma it was 1720 nM. For the same compound, the GI50 in the assay on UACC-257 melanoma was 1820 nM; in the assay with EKVX NSCLC, 9.02 µM. The TGI was determined as 24.7 µM in the assay on OVCAR-5 ovarian; 10.4 µM in the assay with HT29 colon; 24.7 µM in the assay on 786-0 renal; 47.4 µM in the assay with SK-MEL-2 melanoma; 4.49 µM with ACHN renal; 5.78 µM in the assay with LOX IMVI melanoma. The results for the TGI in the assay on UACC-257 melanoma and in the assay with EKVX NSCLC were 4.59 µM and 26.2 µM, respectively.

For `Cn1c(=O)c2c(nc(C(=N)SCC(=O)O)n2C)n(C)c1=O`, the TGI in the assay on OVCAR-5 ovarian, in the assay with HT29 colon, in the assay with 786-0 renal, in the assay on SK-MEL-2 melanoma, in the assay with ACHN renal and in the assay with LOX IMVI melanoma was greater than 100 µM throughout. In addition, the TGI with UACC-257 melanoma and in the assay with EKVX NSCLC was greater than 100 µM in each case.

For the compound `O=C1Nc2ccccc2/C1=C1\CCc2cc(O)ccc21`, the GI50 is 16.1 µM with OVCAR-5 ovarian; 9.77 µM in the assay with HT29 colon; 19.2 µM with 786-0 renal; 9.99 µM in the assay with SK-MEL-2 melanoma; 10.6 µM in the assay on ACHN renal; 6500 nM with LOX IMVI melanoma. Besides, the GI50 in the assay with UACC-257 melanoma is 9470 nM; with EKVX NSCLC it was 4.17 µM. The TGI in the assay with OVCAR-5 ovarian, with HT29 colon, in the assay with 786-0 renal, with SK-MEL-2 melanoma, with ACHN renal and in the assay with LOX IMVI melanoma was greater than 25 µM each time. Besides, the TGI in the assay with UACC-257 melanoma and in the assay with EKVX NSCLC was greater than 25 µM in each case.

On to `O=C(/C(=C\c1c(-c2ccccc2)[nH]c2ccccc12)S(=O)(=O)c1ccccc1)c1ccccc1`, for which the GI50 in the assay with OVCAR-5 ovarian was greater than 100 µM; with HT29 colon it was greater than 100 µM; in the assay on 786-0 renal it was greater than 100 µM; in the assay with SK-MEL-2 melanoma it was greater than 100 µM; with ACHN renal, 6.67 µM; in the assay on LOX IMVI melanoma, 74700 nM. Besides, the GI50 in the assay on UACC-257 melanoma was greater than 100000 nM; in the assay with EKVX NSCLC it was 4.56 µM. The TGI in the assay with OVCAR-5 ovarian, in the assay with HT29 colon, with 786-0 renal, in the assay with SK-MEL-2 melanoma, in the assay on ACHN renal and with LOX IMVI melanoma was greater than 100 µM throughout. The TGI in the assay on UACC-257 melanoma and in the assay with EKVX NSCLC was greater than 100 µM throughout.

For the compound `c1ccc2c(c1)[nH]c1c2cc[n+]2cc3c(cc12)CCCC3`, the GI50 in the assay on OVCAR-5 ovarian was 3.87 µM; in the assay with HT29 colon, 2.4 µM; in the assay on 786-0 renal it was 4 µM; with SK-MEL-2 melanoma, 1.44 µM; in the assay on LOX IMVI melanoma, 2030 nM; with UACC-257 melanoma it was 2090 nM. Further, the TGI with OVCAR-5 ovarian was 17.9 µM and 13.6 µM; in the assay with HT29 colon, 9.74 µM and 19.6 µM; in the assay on 786-0 renal, 16.4 µM and 12.7 µM; in the assay with ACHN renal it was 16.1 µM and 14.1 µM; with LOX IMVI melanoma, 5.05 µM and 6.75 µM; in the assay with UACC-257 melanoma it was 6.83 µM and 25.6 µM. The compound further gave a TGI in the assay with EKVX NSCLC of 32.4 µM.

For the compound `COc1ccc(-c2nccn2-c2ccc(OC)cc2)cc1`, the GI50 in the assay on OVCAR-5 ovarian was 25 µM; in the assay on HT29 colon it was 13 µM; in the assay on 786-0 renal, 21.9 µM; in the assay on SK-MEL-2 melanoma, 25.3 µM; with ACHN renal, 5.64 µM; with LOX IMVI melanoma, 32200 nM. Besides, the GI50 is 26000 nM with UACC-257 melanoma and 41.5 µM with EKVX NSCLC. Also, the TGI with OVCAR-5 ovarian was greater than 100 µM; in the assay on HT29 colon, 32.9 µM; with 786-0 renal, 60.6 µM; in the assay on SK-MEL-2 melanoma it was greater than 73.5 µM; in the assay on ACHN renal, greater than 57.4 µM; in the assay with LOX IMVI melanoma, 97.9 µM. Also, the TGI in the assay with UACC-257 melanoma was greater than 88 µM; in the assay with EKVX NSCLC, greater than 100 µM.

Take `COc1ccc(/C(C)=C(\c2ccc(OCCN3CCCCCC3)cc2)c2ccc(OC(=O)C3CCCCC3)cc2)cc1`: the GI50 with OVCAR-5 ovarian was 1.41 µM; in the assay on HT29 colon it was 0.46 µM; in the assay on 786-0 renal it was 1.11 µM; with SK-MEL-2 melanoma, 1.87 µM; in the assay on ACHN renal, 1.73 µM; in the assay with LOX IMVI melanoma it was 319 nM. In addition, the values for the GI50 with UACC-257 melanoma and in the assay with EKVX NSCLC were 575 nM and 1.39 µM, respectively. Besides, the TGI in the assay on OVCAR-5 ovarian was 3.44 µM; with HT29 colon, 2.14 µM; with 786-0 renal, 3.06 µM; with SK-MEL-2 melanoma, 4.19 µM; in the assay with ACHN renal, 3.56 µM; in the assay with LOX IMVI melanoma it was 0.788 µM. Besides, the figures for the TGI in the assay on UACC-257 melanoma and in the assay with EKVX NSCLC were 2.07 µM and 5.48 µM, respectively.

Consider `CCCC(=O)C1=C(O)C(Cc2c(O)c(C)c(O)c(C(=O)CCC)c2O)=C(O)C(C)(C)C1=O`, for which the TGI was 33.9 µM in the assay on OVCAR-5 ovarian; greater than 50 µM in the assay on HT29 colon; greater than 50 µM in the assay with 786-0 renal; greater than 50 µM in the assay on SK-MEL-2 melanoma; greater than 50 µM in the assay with ACHN renal; greater than 50 µM in the assay on LOX IMVI melanoma. Moreover, the TGI in the assay with UACC-257 melanoma and with EKVX NSCLC was greater than 50 µM each time.

On to `COc1ccc(-c2cnnn2-c2nonc2-n2cccc2)cc1`, for which the GI50 with OVCAR-5 ovarian is 1.45 µM; in the assay on HT29 colon, 0.128 µM; with 786-0 renal, 0.488 µM; in the assay with SK-MEL-2 melanoma it was 0.189 µM; in the assay on ACHN renal it was 1.05 µM; in the assay on LOX IMVI melanoma, 594 nM. Moreover, the GI50 is 373 nM in the assay on UACC-257 melanoma and 0.547 µM in the assay on EKVX NSCLC. For the same compound, the TGI in the assay on OVCAR-5 ovarian was greater than 100 µM; in the assay on HT29 colon, 2.8 µM; in the assay with 786-0 renal it was greater than 34 µM; in the assay with SK-MEL-2 melanoma, 0.8 µM; in the assay with ACHN renal, greater than 94 µM; in the assay on LOX IMVI melanoma it was 19 µM. Besides, the TGI is 35.1 µM in the assay on UACC-257 melanoma and greater than 94.7 µM with EKVX NSCLC.
